Like-named read-outs stand apart in the source and are kept apart here.
How the values were obtained:
Format in all cases: cell-based
A549 = test: SRB antiproliferative assay A549; conditions: Homo sapiens
From the text: (§1) The cells were passaged using Trypsin (Gibco).

HT29 = test: SRB antiproliferative assay HT29; conditions: Homo sapiens
From the text: as §1

[1] = biological target: T1, Ca2+-activated potassium channel (Gardos channel) of erythrocytes (Homo sapiens, UniProt O15554); test: Gardos channel assay
T1 construct: endogenous in cells; host or cells: erythrocytes
T1 sequence (O15554 whole entry): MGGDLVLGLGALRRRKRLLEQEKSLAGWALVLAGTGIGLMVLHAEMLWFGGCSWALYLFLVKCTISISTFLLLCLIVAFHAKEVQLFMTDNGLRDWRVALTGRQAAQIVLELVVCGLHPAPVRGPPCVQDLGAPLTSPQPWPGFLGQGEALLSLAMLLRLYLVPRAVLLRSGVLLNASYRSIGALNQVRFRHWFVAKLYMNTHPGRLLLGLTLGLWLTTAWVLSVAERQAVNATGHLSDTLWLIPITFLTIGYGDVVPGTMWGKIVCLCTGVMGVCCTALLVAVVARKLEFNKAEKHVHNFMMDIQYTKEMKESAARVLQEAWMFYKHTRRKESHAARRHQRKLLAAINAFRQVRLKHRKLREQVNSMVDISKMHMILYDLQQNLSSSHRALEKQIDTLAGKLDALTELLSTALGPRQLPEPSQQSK

[2] = system: NIH 3T3 mouse fibroblast cells; test: Mitogenic assay (mitogen-induced cell proliferation); conditions: for IC50: mitogen-induced cell proliferation
MMRU = test: SRB antiproliferative assay MMRU; conditions: Homo sapiens
From the text: as §1

HTB174 = test: SRB antiproliferative assay HTB174; conditions: HTB174 (Lung), 5% FCS/5 day incubation; read-out: Test Compound IC50
From the text: as §1

MCF7 = test: SRB antiproliferative assay MCF7; conditions: Homo sapiens
From the text: as §1

HEPG2 = test: SRB antiproliferative assay HEPG2; conditions: Homo sapiens
From the text: as §1

U118MG = test: SRB antiproliferative assay U118MG; conditions: Homo sapiens, U-118-MG; U118MG, 5% FCS/3 days; read-out: Test Compound IC50 Value in Cell Lines
From the text: as §1

[3] = A549, A549, 5% FCS/2 days, read-out: Test Compound IC50 Value in Cell Lines
[4] = HT-29, HT29, 5% FCS/2 days, read-out: Test Compound IC50 Value in Cell Lines
[5] = MMRU, 5% FCS/2 days, read-out: Test Compound IC50 Value in Cell Lines
[6] = Mus musculus, NIH3T3, NIH 3T3 mouse fibroblast cells
[7] = A549, A549 (Lung), 5% FCS/5 day incubation, read-out: Test Compound IC50
[8] = MCF7 (Breast), 5% FCS/5 day incubation, read-out: Test Compound IC50
[9] = HT-29, HT29 (Colon), 5% FCS/5 day incubation, read-out: Test Compound IC50
[10] = HEPG2 (Hepatocel), 5% FCS/5 day incubation, read-out: Test Compound IC50
[11] = MMRU (Melanoma), 5% FCS/5 day incubation, read-out: Test Compound IC50

| Structure (SMILES) | IC50 [1] [nM] | inhibition at 10 µM ([1]; 10 μM compound) [%] | IC50 [2, 6] [nM] | IC50 (A549; [7]) [nM] | IC50 (HTB174) [nM] | IC50 (MCF7; [8]) [nM] | IC50 (HT29; [9]) [nM] | IC50 (HEPG2; [10]) [nM] | IC50 (MMRU; [11]) [nM] | further results |
| --- | --- | --- | --- | --- | --- | --- | --- | --- | --- | --- |
| CN1Cc2ccccc2C(c2ccccc2Cl)c2ccccc21 (centres unmarked) [Compound 29] | – | – | – | – | – | – | – | – | – | IC50 (A549; [3]): > 10000 nM; IC50 (HT29; [4]): > 10000 nM; Gardos Channel Assay Inhibition ([1]; 10 μM compound, 10 µM): 95.1%; Mitogenic Assay Inhibition ([2]; 10 µM compound, NIH 3T3 mouse fibroblast cells): 99.0%; IC50 ([2]; NIH 3T3 mouse fibroblast cells): 800 nM; IC50 (MMRU; [5]): > 10000 nM |
| Clc1ccccc1C1c2ccccc2CNc2ccccc21 (centres unmarked) [Compound 3] | 886 | 97.4 | 2400 | – | – | – | – | – | – | – |
| O=C(c1ccccc1)N1Cc2ccccc2C(c2ccccc2)c2ccccc21 (centres unmarked) [Compound 16] | > 10000 | 0.45 | 1700 | > 5000 | 2600 | 4200 | 2600 | 3400 | 2700 | – |
| COc1cccc2c1C(c1ccccc1Cl)c1cc(Cl)ccc1N(C(=O)c1ccc(Cl)cc1)C2 (centres unmarked) [Compound 24] | > 10000 | 32 to 55 | – | – | – | – | – | – | – | – |
| Cc1ccc(C(=O)N2Cc3ccccc3C(c3ccccc3)c3ccccc32)cc1 (centres unmarked) [Compound 22] | > 10000 | 14.9 | 3600 | 1900 | 1400 | 1800 | 700 | 1400 | 900 | – |
| Nc1ccc(C(=O)N2Cc3ccccc3C(c3ccccc3Cl)c3ccccc32)cc1 (centres unmarked) [Compound 34] | > 10000 | 12 | 4000 | > 5000 | 900 | 2000 | 1600 | 1500 | 1200 | IC50 (A549; [3]): > 10000 nM; IC50 (HT29; [4]): 6800 nM; IC50 (MMRU; [5]): > 10000 nM |
| CN1Cc2ccccc2C(c2ccccc2Cl)c2ccccc21 (centres unmarked) [Compound 4] | 384 | 98.1 | 1500 | – | – | – | – | – | – | IC50 (A549; A549, A549, 2% FCS/3 days, read-out: Test Compound IC50 Value in Cell Lines): 11400 nM; IC50 (MCF7; MCF7, 2% FCS/3 days, read-out: Test Compound IC50 Value in Cell Lines): 1700 nM; IC50 (HT29; HT-29, HT29, 2% FCS/3 days, read-out: Test Compound IC50 Value in Cell Lines): 9700 nM; IC50 (MMRU; MMRU, 2% FCS/3 days, read-out: Test Compound IC50 Value in Cell Lines): 4600 nM |
| O=C(c1ccc2ccccc2c1)N1Cc2ccccc2C(c2ccccc2)c2ccccc21 (centres unmarked) [Compound 25] | > 10000 | 8.5 | – | – | – | – | – | – | – | – |
| CCOC(=O)C(=O)N1Cc2ccccc2C(c2ccccc2)c2ccccc21 (centres unmarked) [Compound 10] | 1530 to 1940 | 63 | – | – | – | – | – | – | – | – |
| COc1cccc(C(=O)N2Cc3ccccc3C(c3ccccc3)c3ccccc32)c1 (centres unmarked) [Compound 17] | > 10000 | 20.6 | 1600 | > 5000 | 3600 | 4500 | 1700 | 2600 | 2500 | – |
| O=C(Nc1ccc([N+](=O)[O-])cc1)N1Cc2ccccc2C(c2ccccc2Cl)c2ccccc21 (centres unmarked) [Compound 35] | 71 to 99 | 98.3 | – | > 5000 | 4000 | 2400 | 4800 | 4500 | 3100 | IC50 (A549; [3]): > 10000 nM; IC50 (HT29; [4]): 10000 nM; IC50 (MMRU; [5]): > 10000 nM |
| O=C(Nc1ccccc1)N1Cc2ccccc2C(c2ccccc2Cl)c2ccccc21 (centres unmarked) [Compound 32] | – | 0 | 1100 | – | – | – | – | – | – | IC50 (A549; A549, A549, 5% FCS/3 days, read-out: Test Compound IC50 Value in Cell Lines): 6900 nM; IC50 (MCF7; MCF7, 5% FCS/3 days, read-out: Test Compound IC50 Value in Cell Lines): 5400 nM; IC50 (HT29; HT-29, HT29, 5% FCS/3 days, read-out: Test Compound IC50 Value in Cell Lines): 6300 nM; IC50 (HEPG2; HEPG2, 5% FCS/3 days, read-out: Test Compound IC50 Value in Cell Lines): 6200 nM; IC50 (U118MG): 6800 nM; IC50 (MMRU; MMRU, 5% FCS/3 days, read-out: Test Compound IC50 Value in Cell Lines): 4900 nM |
| O=C(O)C(=O)N1Cc2ccccc2C(c2ccccc2)c2ccccc21 (centres unmarked) [Compound 11] | > 10000 | 9.5 | – | – | – | – | – | – | – | – |
| Clc1ccc2c(c1)C(c1ccccc1)c1cc3ccccc3cc1CN2 (centres unmarked) [Compound 15] | > 10000 | 9.5 | – | – | – | – | – | – | – | – |
| COc1ccc2c(c1)CNc1ccccc1C2(c1ccccc1)c1ccc(F)cc1 (centres unmarked) [Compound 12] | > 10000 | 54.8 | – | – | – | – | – | – | – | – |
| COc1ccc2c(c1)CN(C(=O)c1ccc(Cl)cc1)c1ccc(Cl)cc1C2c1ccccc1Cl (centres unmarked) [Compound 23] | > 10000 | 18.2 | – | 3400 | 1800 | 3100 | 2100 | 2300 | 2200 | – |
| COc1ccc2c(c1)CNc1ccc(Cl)cc1C2c1ccccc1Cl (centres unmarked) [Compound 19] | > 10000 | 52 | 1600 | – | – | – | – | – | – | – |
| COC(=O)N1Cc2ccccc2C(c2ccccc2)c2ccccc21 (centres unmarked) [Compound 6] | 236 | 97.5 | – | – | – | – | – | – | – | IC50 (A549; [3]): > 10000 nM; IC50 (HT29; [4]): > 10000 nM; IC50 (MMRU; [5]): 10000 nM |
| COc1ccc(C(=O)N2Cc3ccccc3C(c3ccccc3)c3ccccc32)cc1 (centres unmarked) [Compound 21] | > 10000 | 2.1 | 2700 | 4200 | 1900 | 3500 | 1800 | 1900 | 1500 | – |
| CN1Cc2ccccc2C(c2ccccc2)c2ccccc21 (centres unmarked) [Compound 2] | 1300 | 99 | 5200 | – | – | – | – | – | – | – |
| O=C(c1ccc(Cl)cc1)N1Cc2ccccc2C(c2ccccc2)c2ccccc21 (centres unmarked) [Compound 13] | – | 0 | 1700 | 3100 | 1400 | 2700 | 1500 | 1800 | 1500 | – |
| c1ccc(C2c3ccccc3CNc3ccccc32)cc1 (centres unmarked) [Compound 1] | 775 | 75.2 | – | – | – | – | – | – | – | – |
| COc1cccc2c1C(c1ccccc1Cl)c1cc(Cl)ccc1NC2 (centres unmarked) [Compound 18] | 502 to 692 | 81.5 | 2600 | – | – | – | – | – | – | – |
| CN1Cc2ccccc2C(c2ccccc2)c2cc(Br)ccc21 (centres unmarked) [Compound 7] | > 10000 | 35.8 | 1600 | – | – | – | – | – | – | IC50 (A549; [3]): > 10000 nM; IC50 (HT29; [4]): > 10000 nM; IC50 (MMRU; [5]): > 10000 nM |
| Clc1ccccc1C1c2ccccc2CN(Cc2ccccc2)c2ccccc21 (centres unmarked) [Compound 8] | – | 0 | 2200 | – | – | – | – | – | – | – |
| c1ccc(CN2Cc3ccccc3C(c3ccccc3)c3ccccc32)cc1 (centres unmarked) [Compound 5] | > 10000 | 14.4 | – | – | – | – | – | – | – | IC50 (A549; [3]): 1400 nM; IC50 (HT29; [4]): 1000 nM; IC50 (MMRU; [5]): > 10000 nM |
